Assay [1] concerns the target Adenosylhomocysteinase (Oryctolagus cuniculus). The experiment in a line: Inhibition of S-adenosyl-homocysteine (AdoHcy)hydrolase from rabbit erythrocytes.
The target is the same in assay [2]. The description is as above. The source holds these as a separate data set.

What is called IC50 is the point on the concentration scale where inhibition reaches its midpoint. Low readings indicate higher potency, high ones lower potency. `Nc1ncnc2c1ncn2C1C(O)C(O)C(CO)C1O` (configuration not stated): half-maximal inhibition in assay [1] (IC50) required 28 µM. Compound `Nc1ncnc2c1ncn2[C@@H](C=O)O[C@@H](C=O)CO` [Adenosine dialdehyde] came in with an IC50 in assay [2] of 0.04 µM.

The values above are taken from BindingDB's records for doi:10.1021/jm00117a021 (Syntex Research, 1988).
